Results from US20240010610A1, “COMPOUNDS FOR TREATING SEGMENTAL PROGEROID SYNDROMES” (Progelife, priority 2020, published 2024).
Where two headings read alike, the source gives them in different places. Marks after values point to notes of the source that are not given here. Where a SMILES comes first, the peptide text is derived from it. The star is where a group is joined. Cbz = O=C(OCc1ccccc1)*

Columns and labels:
HGPS fibroblast [1] = conditions: human, 72 h
Protocol: (§2) Fibroblasts from HGPS donors from passage 18 to 24 were cultured in DMEM low glucose (Life Technologies, Courtabœuf, France) containing 15% FBS (Life Technologies), 2 mM L-glutamine (Life Technologies) and 100 U/mL penicillin-streptomycin (Life Technologies) at 37° C. in a humidified atmosphere containing 5% CO2.
(§3) All molecules were diluted in DMSO at 10 mM. Concentrations from 100 μM to 0.0001 nM were used to test cell viability in 96-well plates. Drug efficiency was evaluated in 6-well plates.
(§4) Assays were carried out in 96-well microplates. After 72 hours of treatment, the cells were washed once with 100 μL DPBS (no calcium, no magnesium). Then 100 μl of PrestoBlue solution (Life Technologies) diluted at 10% in DPBS was added to each well. Plates were incubated at 37° C. for 30 minutes. The fluorescence intensity was measured by multiwell plate reader (Glomax microplate reader, Promega, Charbonnières les Bains, France) using green filter (Excitation 525 nm/emission 580-640 nm). Fluorescence intensities values were pasted in Prism Software (Graph Pad, San Diego, CA) to perform a dose response analysis. CV25 correspond to drug concentrations at which HGPS fibroblast cell viability was 25%. CV75 correspond to drug concentrations at which HGPS fibroblast cell viability was 75%.

progerin = assay: Progerin expression by western blot, normalised to total protein (Revert protein stain); type: cell-based, human; conditions: T=72 hours, mean of n=3 unless footnoted; for Mean decrease of progerin expression relative to DMSO control: compounds tested at CV25, HGPS cells; for Mean change of progerin expression relative to DMSO control: compounds tested at CV75, HGPS cells, decrease (−) or increase
Protocol: All molecules were diluted in DMSO at 10 mM. […] Drug efficiency was evaluated in 6-well plates.
Total fibroblast proteins were extracted after 72 hours treatment in 100 μL of NP40 (Invitrogen) with 1× protease and phosphatase inhibitor cocktail (Life Technologies). Lysats were incubated on ice for 30 minutes, with vortexing at 10-minute intervals. Finally, they were sonicated four times (20 sec each) and then centrifuged at 13000 rpm for 10 minutes at 4° C.
Protein concentrations were determined with the BCA™ Protein Assay (Life Technologies).
Protein lysates were separated on Nupage Novex 4-12% Bis-Tris Midi precast gels (Life Technologies) and transferred to Immobilon-FL PVDF membranes (Millipore, Molsheim, France). Membranes were blocked for one hour in 1:1 diluted blocking buffer for near infrared fluorescent western blotting (Rockland, Le Perray, France). Blocked membranes were incubated with primary antibodies overnight at 4° C., following which they were washed and incubated with IR-Dye conjugated secondary antibodies for one hour at RT. Bound antibodies were detected and analyzed on an Odyssey imaging system (Li-COR Biosciences, Bad Homburg, Germany) according to the manufacturer's instructions. Revert Protein Stain (Li-COR Biosciences) was used as a total protein loading control in addition to two traditional protein loading control GAPDH and Actin. Progerin and SRSF1 levels were quantified and normalized by Revert staining using Image Studio Lite™ software developed by Li-COR.
The following antibodies were used in this study: rabbit monoclonal anti-lamin A/C (ab108922, 1/1000, Abcam, Amsterdam, Netherlands), rabbit monoclonal anti-SRSF1 (SF2) (ab129108, 1/1000, Abcam), mouse monoclonal anti-GAPDH (MAB374, 1/40000, Millipore, Molsheim, France) and mouse monoclonal anti-actin (MAB1501R, 1/10000, Millipore. Secondary antibodies conjugated with IR-Dye 800CW or 680 were used according to the manufacturer's instructions (926-32213 and 926-68072, 1/5000, Li-COR Biosciences).
(§1) Mean decrease of progerin expression (presented as a percentage of the concentration measured in DMSO control) with compounds tested at CV25, in HGPS cells at T=72 hours, determined by western blot analysis and normalised to the total amount of protein (Revert protein stain) (mean of n=3 (range)) is presented in the following Table 1:
as §1, with “change (decrease (−) or increase)” for “decrease”, “CV75,” for “CV25,”, “2: […]” for “1:”

HGPS fibroblast [2] = assay: Cell viability and assessment of toxicity (PrestoBlue, dose response); conditions: 72 hours of treatment
Protocol: as §2, §3, §4

Row | Structure (SMILES) | CV25 (HGPS fibroblast [1]) | CV75 (HGPS fibroblast [1]) | Mean decrease of progerin expression relative to DMSO control (progerin) | Mean change of progerin expression relative to DMSO control (progerin) | CV25 (HGPS fibroblast [2]; drug concentration at which HGPS fibroblast cell viability was 25%) | CV75 (HGPS fibroblast [2]; drug concentration at which HGPS fibroblast cell viability was 75%)
1 | CC(C)C[C@H](NC(=O)OCc1ccccc1)C(=O)N[C@@H](CC(C)C)C(=O)N[C@H](C(=O)N[C@H](C=O)Cc1ccc(O)cc1)C(C)C [Compound 13] (Cbz-LLVY-aldehyde) | 0.020 µM | 0.007 µM | 68*** % | −29*** % | – | –
2 | CC(C)C[C@@H](C=O)NC(=O)[C@H](CC(C)C)NC(=O)[C@H](CC(C)C)NC(=O)Cc1ccc(F)cc1F [Compound 8] | 0.152 µM | 0.073 µM | 47% | −16% | – | –
3 | CC(=O)N[C@@H](CC(C)C)C(=O)N[C@@H](CC(C)C)C(=O)N[C@H](C=O)CC(C)C [Compound 3] (Ac-Leu-Leu-Leu-aldehyde) | 1.800 µM | 0.720 µM | 71% | 0% | – | –
4 | CC(C)C[C@@H](/C=N/NC(N)=O)NC(=O)[C@H](CC(C)C)NC(=O)[C@H](CC(C)C)NC(=O)OCc1ccccc1 [Compound 16] | 1.750 µM | 0.195 µM | 66% | 0% | – | –
5 | CC(C)C[C@@H](C=O)NC(=O)[C@H](CC(C)C)NC(=O)[C@H](CC(C)C)NC(=O)c1cc(Cl)ccc1Cl [Compound 12] | 0.063 µM | 0.001 µM | 61** % | −1** % | – | –
6 | CC(C)C[C@@H](C=O)NC(=O)[C@H](Cc1ccccc1)NC(=O)[C@H](CC(C)C)NC(=O)OCc1ccccc1 [Compound 6, Z-Leucine-Phenylalanine-Leucinal] (Cbz-Leu-Phe-Leu-aldehyde) | 0.142 µM | 0.060 µM | 69% | 6% | – | –
7 | CC(C)C[C@@H](C=O)NC(=O)[C@H](CC(C)C)NC(=O)[C@H](CC(C)C)NC(=O)c1cnccn1 [Compound 7] | 5.5 µM | 2.1 µM | 79% | −36% | – | –
8 | CC(C)C[C@@H](C=O)NC(=O)[C@H](CC(C)C)NC(=O)[C@H](CC(C)C)NC(=O)OCc1ccccc1 [Compound 1, Z-Leu-Leu-Leucinal, reference compound] (Cbz-Leu-Leu-Leu-aldehyde) | – | – | 67* % | −3* % | 0.270 µM | 0.137 µM
9 | CC(C)C[C@@H](C=O)NC(=O)[C@H](CC(C)C)NC(=O)[C@H](Cc1ccccc1)NC(=O)OCc1ccccc1 [Compound 4, Z-Phenylalanine-Leucine-Leucinal] (Cbz-Phe-Leu-Leu-aldehyde) | 0.402 µM | 0.133 µM | 70% | −12% | – | –
10 | CC(C)C[C@@H](C=O)NC(=O)[C@H](CC(C)C)NC(=O)[C@H](CC(C)C)NC(=O)Cc1cccc(CC(=O)N[C@@H](CC(C)C)C(=O)N[C@@H](CC(C)C)C(=O)N[C@H](C=O)CC(C)C)c1 [Compound 14] | 0.589 µM | 0.155 µM | 66% | −1% | – | –
